Laboratory results reported in ChEMBL document CHEMBL1141671, “N6-1,3-diphenylurea derivatives of 2-phenyl-9-benzyladenines and 8-azaadenines: synthesis and biological evaluation as allosteric modulators of A2A adenosine receptors” (Eur J Med Chem, 2008).

Tests used:
Adenosine receptor A2a [1] = biological target: T1, Adenosine receptor A2a (Homo sapiens, UniProt P29274); assay: Displacement of [3H]ZM241385 from human recombinant adenosine A2A receptor expressed in CHO cells at 10 uM by liquid scintillation counting relative to control; assay type: cell-based
Adenosine receptor A2a [2] = biological target: T1, Adenosine receptor A2a; assay: Displacement of [3H]CGS21680 from human recombinant adenosine A2A receptor expressed in CHO cells at 10 uM by liquid scintillation counting relative to control; assay type: cell-based
[3] = biological target: T2, Adenosine receptor A1 (Rattus norvegicus) (UniProt P25099); assay: Displacement of [3H]DPCPX from adenosine A1 receptor in Wistar rat cerebral cortex at 10 uM by liquid scintillation counting relative to control; assay type: tissue-based
T2 sequence (whole entry): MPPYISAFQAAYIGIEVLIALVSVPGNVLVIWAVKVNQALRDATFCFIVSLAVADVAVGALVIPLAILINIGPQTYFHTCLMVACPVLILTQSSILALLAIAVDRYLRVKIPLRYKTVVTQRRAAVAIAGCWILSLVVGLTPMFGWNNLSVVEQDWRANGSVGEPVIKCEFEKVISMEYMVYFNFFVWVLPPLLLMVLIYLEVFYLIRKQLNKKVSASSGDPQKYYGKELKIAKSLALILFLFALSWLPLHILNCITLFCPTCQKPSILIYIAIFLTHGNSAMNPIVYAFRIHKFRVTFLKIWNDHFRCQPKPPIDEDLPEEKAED

[4] = biological target: T2, Adenosine receptor A1 (Rattus norvegicus); assay: Displacement of [3H]CCPA adenosine A1 receptor in Wistar rat cerebral cortex at 10 uM by liquid scintillation counting relative to control; assay type: tissue-based
[5] = biological target: T3, Adenosine receptor A3 (Homo sapiens) (UniProt P0DMS8); assay: Displacement of [3H]NECA from human recombinant adenosine A3 receptor expressed in CHO cells at 10 uM by liquid scintillation counting relative to control; assay type: cell-based
T3 sequence (whole entry): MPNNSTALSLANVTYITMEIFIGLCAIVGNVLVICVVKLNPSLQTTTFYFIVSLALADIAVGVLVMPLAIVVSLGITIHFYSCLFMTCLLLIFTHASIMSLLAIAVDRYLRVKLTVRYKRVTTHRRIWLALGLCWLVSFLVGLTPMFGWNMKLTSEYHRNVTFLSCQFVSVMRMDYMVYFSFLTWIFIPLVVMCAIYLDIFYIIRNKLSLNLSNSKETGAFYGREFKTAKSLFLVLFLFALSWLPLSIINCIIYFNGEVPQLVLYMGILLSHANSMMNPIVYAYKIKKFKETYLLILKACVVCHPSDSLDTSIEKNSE

Adenosine receptor A1 [6] = biological target: T4, Adenosine receptor A1 (Rattus norvegicus, UniProt P25099); assay: Displacement of [3H]CCPA from adenosine A1 receptor in Wistar rat cerebral cortex by liquid scintillation counting; assay type: tissue-based
T4 sequence (P25099 whole entry): T2 sequence (whole entry)

Adenosine receptor A1 [7] = biological target: T4, Adenosine receptor A1; assay: Displacement of [3H]DPCPX from adenosine A1 receptor in Wistar rat cerebral cortex by liquid scintillation counting; assay type: tissue-based
Adenosine receptor A2a [8] = biological target: T1, Adenosine receptor A2a; assay: Displacement of [3H]ZM241385 from human recombinant adenosine A2A receptor expressed in CHO cells by liquid scintillation counting; assay type: cell-based
Adenosine receptor A2a [9] = biological target: T1, Adenosine receptor A2a; assay: Displacement of [3H]CGS21680 from human recombinant adenosine A2A receptor expressed in CHO cells by liquid scintillation counting; assay type: cell-based
Adenosine receptor A2a [10] = biological target: T1, Adenosine receptor A2a; conditions: CHO
Description: Displacement of [3H]ZM241385 from human adenosine A2A receptor expressed in CHO cells assessed as time course of dissociation at 10 uM by liquid scintillation counting relative to control

Adenosine receptor A2a [11] = biological target: T1, Adenosine receptor A2a; conditions: CHO; remark: listed apart in the source
Description: Dissociation of [3H]ZM241385 from human adenosine A2A receptor expressed in CHO cells at 100 uM by liquid scintillation counting relative to control

Aorta [12] = assay: tissue or blood; conditions: Rattus norvegicus, Wistar, 20 min, read-out: pIC50 (converted)
Aorta [13] = assay: Vasorelaxation activity in Wistar rat endothelium-intact aortic ring assessed as inhibition of noradrenaline-induced contraction at 10 uM after 20 mins; assay type: functional
Aorta [14] = assay: Vasorelaxation activity in Wistar rat endothelium-intact aortic ring assessed as inhibition of noradrenaline-induced contraction after 20 mins; conditions: read-out: pIC50 (converted)
Aorta [15] = assay: Potentiation of CGS-21680-induced vasorelaxation activity in Wistar rat endothelium-intact aortic ring assessed as inhibition of noradrenaline-induced contraction at 10 uM after 20 mins; assay type: functional
Adenosine receptor A3 = biological target: T5, Adenosine receptor A3 (Homo sapiens, UniProt P0DMS8); assay: Displacement of [3H]NECA from human recombinant adenosine A3 receptor expressed in CHO cells by liquid scintillation counting; assay type: cell-based
T5 sequence (P0DMS8 whole entry): T3 sequence (whole entry)

T1 sequence (P29274 whole entry): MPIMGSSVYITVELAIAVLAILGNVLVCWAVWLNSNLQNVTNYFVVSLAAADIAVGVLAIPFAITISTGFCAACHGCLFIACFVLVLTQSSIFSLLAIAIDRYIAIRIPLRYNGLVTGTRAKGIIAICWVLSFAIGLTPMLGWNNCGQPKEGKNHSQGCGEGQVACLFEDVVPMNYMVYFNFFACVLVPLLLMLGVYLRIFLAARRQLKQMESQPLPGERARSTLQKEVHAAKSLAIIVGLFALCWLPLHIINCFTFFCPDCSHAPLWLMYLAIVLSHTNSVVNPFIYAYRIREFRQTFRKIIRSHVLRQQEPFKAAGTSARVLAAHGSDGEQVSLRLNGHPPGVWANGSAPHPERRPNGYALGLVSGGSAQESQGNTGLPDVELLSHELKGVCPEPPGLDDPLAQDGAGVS

Row | Activity (Adenosine receptor A2a [1]) | Activity (Adenosine receptor A2a [2]) | Activity [3] | Activity [4] | Activity [5] | Structure (SMILES) | further results
1 | 98% | 96% | 105% | 33% | 58% | O=[N+]([O-])c1ccc(Nc2nc(-c3ccccc3)nc3c2nnn3Cc2ccccc2)cc1 | 
2 | 59% | 44% | 46% | 7% | 56% | Nc1ccc(Nc2nc(-c3ccccc3)nc3c2ncn3Cc2ccccc2)cc1 | Ki (Adenosine receptor A1 [6]): 294 nM; Ki (Adenosine receptor A1 [7]): 396 nM; Ki (Adenosine receptor A2a [8]): 5740 nM; Ki (Adenosine receptor A2a [9]): 4170 nM
3 | 166% | 120% | 107% | 68% | 56% | COc1ccc(NC(=O)Nc2ccc(Nc3nc(-c4ccccc4)nc4c3ncn4Cc3ccccc3)cc2)cc1 | 
4 | 84% | 114% | 84% | 2% | 51% | O=[N+]([O-])c1ccc(Nc2nc(-c3ccccc3)nc3c2ncn3Cc2ccccc2)cc1 | Ki (Adenosine receptor A1 [6]): 571 nM; Ki (Adenosine receptor A1 [7]): 699 nM; Ki (Adenosine receptor A2a [8]): 1900 nM
5 | 77% | 0% | 33% | 4% | 49% | Nc1ccc(Nc2nc(-c3ccccc3)nc3c2nnn3Cc2ccccc2)cc1 | Ki (Adenosine receptor A1 [6]): 103 nM; EC50 (Adenosine receptor A1 [7]): 750 nM; Ki (Adenosine receptor A1 [7]): 132 nM; EC50 (Adenosine receptor A2a [8]): 9740 nM; Ki (Adenosine receptor A2a [8]): 1300 nM; T1/2 (Adenosine receptor A2a [10]): 8.89 s; Kdiss (Adenosine receptor A2a [11]): 0.078 s⁻¹; Ki (Adenosine receptor A2a [9]): 280 nM
6 | 142% | 59% | 105% | 74% | 58% | COc1ccc(NC(=O)Nc2ccc(Nc3nc(-c4ccccc4)nc4c3nnn4Cc3ccccc3)cc2)cc1 | 
7 |  |  |  |  |  | CCNC(=O)[C@H]1O[C@@H](n2cnc3c(N)nc(NCCc4ccc(CCC(=O)O)cc4)nc32)[C@H](O)[C@@H]1O [CGS-21680] | IC50 (Aorta [12]): 69.2 nM; Emax at 10 µM (Aorta [13]): 76%; IC50 (Aorta [14]): 263 nM; Emax at 10 µM (Aorta [15]): 91%
8 | 111% | 83% | 105% | 85% | 70% | O=C(Nc1ccc(F)cc1)Nc1ccc(Nc2nc(-c3ccccc3)nc3c2ncn3Cc2ccccc2)cc1 | 
9 | 107% | 74% | 101% | 73% | 53% | O=C(Nc1ccccc1)Nc1ccc(Nc2nc(-c3ccccc3)nc3c2ncn3Cc2ccccc2)cc1 | 
10 | 149% | 57% | 106% | 67% | 37% | O=C(Nc1ccc(Nc2nc(-c3ccccc3)nc3c2ncn3Cc2ccccc2)cc1)Nc1ccc(C(F)(F)F)cc1 | Ki (Adenosine receptor A3): 5610 nM
11 | 127% | 180% | 94% | 74% | 72% | O=C(Nc1ccc(Nc2nc(-c3ccccc3)nc3c2nnn3Cc2ccccc2)cc1)Nc1ccc(C(F)(F)F)cc1 | 
12 | 167% | 176% | 107% | 72% | 92% | O=C(Nc1ccc(F)cc1)Nc1ccc(Nc2nc(-c3ccccc3)nc3c2nnn3Cc2ccccc2)cc1 | EC50 (Adenosine receptor A2a [8]): 16000 nM; T1/2 (Adenosine receptor A2a [10]): 13.2 s; Kdiss (Adenosine receptor A2a [11]): 0.052 s⁻¹; EC50 (Adenosine receptor A2a [9]): 9950 nM
13 | 133% | 57% | 110% | 79% | 78% | O=C(Nc1ccccc1)Nc1ccc(Nc2nc(-c3ccccc3)nc3c2nnn3Cc2ccccc2)cc1 | 
